Assay results reported in patent publication US7884136B2, “Modified-release formulations of a bupropion salt” (Biovail Laboratories International S.R.L., priority 2005, dated 2011).

Columns and labels:
[1] = Release of bupropion base from bupropion HCl and HBr; type: physicochemical
Procedure: It was previously observed that when 150 mg of bupropion HCl was tested for its release of bupropion, the base value that was released was 130 mg.

[2] = TGA experiment at 100° C., loss of API salt over time; type: physicochemical; settings: TGA at 100° C.
Procedure: The average weight of the excipients and the weight of the active pharmaceutical ingredient (API) present in the samples are presented in Table 72. […] FIG. 53 is a graph showing the loss of each salt over time in a TGA experiment at 100° C.

[3] = Solubility of Bupropion HBr vs Bupropion HCl in water, EtOH, IPA; type: physicochemical
[4] = Dynamic Vapour Sorption (DVS) hygroscopicity of bupropion HBr; type: physicochemical; settings: for DVS: water uptake / hygroscopicity (words): range 0% RH-90% RH, hydrobromide
[5] = Moisture content of bupropion salts by KF; type: physicochemical
Procedure: The eight salts were first evaluated by HPLC, KF, pH and DSC for purity, water content, aqueous pH and possible polymorphs.
The salts were analysed by DSC (at 10° C./min from 30° C. up to 400° C.) and the pH (aq. 0.5%), and the moisture content by KF were also measured. The TGA was performed on the HCl, maleate, tosylate and HBr salts.

[6] = Forced degradation of bupropion HBr and HCl in the presence of excipients at 55° C., 55° C./100% RH, 100° C. and 105° C.; type: physicochemical; settings: 24 and 48 hours at 55° C., 105 degrees C., hydrobromide
Procedure: Forced degradation studies were also performed on bupropion HBr and bupropion HCl API's in the presence of standard excipients used in pharmaceutical formulations.
Further forced degradation studies were carried out at 55° C., at 55° C. and 100% relative humidity, at 100° C., and at 105° C. on both the HCl and HBr Bupropion salts in the presence of excipients. The average weight of the excipients and the weight of the active pharmaceutical ingredient (API) present in the samples are presented in Table 72. […] FIG. 53 is a graph showing the loss of each salt over time in a TGA experiment at 100° C.

[7] = Forced degradation stability study of bupropion salts spiked with placebo/excipients, closed vials, 40° C./75% RH, HPLC assay and impurities
[8] = Comparative forced degradation of bupropion HCl and HBr API salts, closed glass bottle, 40° C./75% RH, HPLC; type: physicochemical; settings: for % Assay / % Impurities 3-CBZ / % Impurities 20U78/dilu / % Impurities 827U76 / % Impurities 852U77 / % Impurities Total unknown / Total (%) impurities: closed glass bottle
Procedure: Further stability tests were performed by directly comparing bupropion HBr and bupropion HCl salts in forced degradation studies. […] At specified times, the material in the bottles was analyzed for the presence of degradation products and % potency (% assay).
The samples were exposed to the above conditions in a closed bottle for few days, and then subjected to HPLC analysis. The amount of the main degradation products present after treatment were compared with those amounts that were present initially.
The samples were analysed after 14 and 24 days (study-1) and 10 days (study II), in a quantitative manner by direct treatment of the whole content of the bottle as per the HPLC standard test method (P05.901.10).

[9] = In IPA/EtOH, 32 days, closed vials
[10] = In water, 32 days, closed vials
[11] = salt plus excipients, 20 days, closed vial, 40° C./75% RH
[12] = repeat study, 40 C/75% RH, 10 Days, Lot# STN07491, hydrobromide
[13] = repeat study, 40 C/75% RH, 10 Days, Lot# STN07492, hydrobromide
[14] = repeat study, 40 C/75% RH, Initial, Lot# STN07491, hydrobromide
[15] = repeat study, 40 C/75% RH, Initial, Lot# STN07492, hydrobromide

Br.CC(NC(C)(C)C)C(=O)c1cccc(Cl)c1 (centres unmarked) [Bupropion HBr, bupropion hydrobromide]
Base value of bupropion released ([1]; 150 mg of the salt tested): 112 mg | Base value of bupropion released ([1]; 174 mg of the salt tested): 130 mg | Disproportionation of the salt at elevated temperature [2]: did not occur | Solubility, EtOH ([3]; EtOH): 92 mg/mL | Solubility, IPA ([3]; IPA): 12 mg/mL | Solubility, Water ([3]; water): 143 mg/mL | DVS: maximum water uptake ([4]; at 90% RH): 0.14 % weight | DVS: water uptake / hygroscopicity (words) ([4]; listed as HBr): non-hygroscopic | DVS: water uptake / hygroscopicity (words) ([4]; listed as bupropion HBr): no significant water uptake | Moisture Content (KF) ([5]; Table 3, supplier API): 0.00% | KF (moisture content), Original (Initial APIs) ([5]; original API salts): 0.00% | Degradation in the presence of excipients (formation of impurities, words) ([6]; listed as HBr): lowest amount of degradation | Degradation in the presence of excipients (formation of impurities, words) ([6]; listed as bupropion HBr): significant improvements in stability compared to bupropion HCl | Order of stability (assay) with IPA & EtOH ([7]; DS and excipients spiked with IPA & EtOH, 32 days, closed vials, 40° C.): HCl>HBr>tosylate>maleate>fumarate | Order of stability (assay) with water ([7]; DS and excipients spiked with water, 32 days, closed vials, 40° C.): tosylate>maleate>HCl>HBr>fumarate | Stability in the forced degradation stability studies, overall ([7]; DS and spiked DS, 40° C./75% RH): superior stability in a closed container | Content of impurity 3-CBZ, order of salts [7, 9]: maleate > HBr > HCl > Fumarate | Content of impurity 852U77, order of salts [7, 9]: fumarate > HBr ≈ HCl ≈ maleate ≈ tosylate | Total imp., order of salts [7, 9]: fumarate > maleate > HBr > HCl > tosylate | Content of impurity 3-CBZ, order of salts [7, 10]: HCl > HBr ≈ maleate ≈ fumarate | Content of impurity 852U77, order of salts [7, 10]: fumarate > HBr > maleate > HCl | Total imp., order of salts [7, 10]: fumarate > HBr > HCl > tosylate > maleate | Degradation products and retained activity compared with all salts tested ([7]; open and closed vials, 40 degrees C./75% RH, 'after at least 3 months or after at least 6 months'): least amount of degradation products | Impurities (3-CBZ, 852U77 & total) compared to the other salts [7, 11]: lowest | Order of stability (assay, % potency) [7, 11]: HBr>HCl=tosylate>fumarate>maleate | Impurities and % potency compared to the HCl salt ([8]; closed bottles, 40 degrees C. and 75% relative humidity): amount of impurities was consistently lower and the % potency was consistently higher | % Assay ([8]; 40° C./75% RH, 14-Days): 98.8% | % Impurities 3-CBZ ([8]; 40° C./75% RH, 14-Days): 0.015% | % Impurities 20U78/dilu ([8]; 40° C./75% RH, 14-Days): 0.048% | % Impurities 827U76 ([8]; 40° C./75% RH, 14-Days): 0.012% | % Impurities 852U77 ([8]; 40° C./75% RH, 14-Days): 0.058% | % Impurities Total unknown ([8]; 40° C./75% RH, 14-Days): 0.105% | Total (%) impurities ([8]; 40° C./75% RH, 14-Days): 0.23% | % Assay ([8]; 40° C./75% RH, 24 Days): 99.5% | % Impurities 3-CBZ ([8]; 40° C./75% RH, 24 Days): 0.022% | % Impurities 20U78/dilu ([8]; 40° C./75% RH, 24 Days): 0.038% | % Impurities 827U76 ([8]; 40° C./75% RH, 24 Days): 0.016% | % Impurities 852U77 ([8]; 40° C./75% RH, 24 Days): 0.052% | % Impurities Total unknown ([8]; 40° C./75% RH, 24 Days): 0.104% | Total (%) impurities ([8]; 40° C./75% RH, 24 Days): 0.23% | % Assay ([8]; 40° C./75% RH, Initial): 99.6% | % Impurities 3-CBZ ([8]; 40° C./75% RH, Initial): 0.007% | % Impurities 20U78/dilu ([8]; 40° C./75% RH, Initial): 0.044% | % Impurities 852U77 ([8]; 40° C./75% RH, Initial): 0.009% | % Impurities Total unknown ([8]; 40° C./75% RH, Initial): 0.098% | Total (%) impurities ([8]; 40° C./75% RH, Initial): 0.16% | % Impurities 827U76 ([8]; repeat study, 40 C/75% RH, 10 Days): 0.039% | % Assay [8, 12]: 98.2% | % Impurities 3-CBZ [8, 12]: 0.070% | % Impurities 20U78/dilu [8, 12]: 0.051% | % Impurities 852U77 [8, 12]: 0.125% | % Impurities Total unknown [8, 12]: 0.129% | Total (%) impurities [8, 12]: 0.42% | % Assay [8, 13]: 99.2% | % Impurities 3-CBZ [8, 13]: 0.031% | % Impurities 20U78/dilu [8, 13]: 0.044% | % Impurities 852U77 [8, 13]: 0.055% | % Impurities Total unknown [8, 13]: 0.15% | Total (%) impurities [8, 13]: 0.24% | % Impurities 20U78/dilu ([8]; repeat study, 40 C/75% RH, Initial): 0.041% | % Assay [8, 14]: 99.5% | % Impurities 3-CBZ [8, 14]: 0.011% | % Impurities Total unknown [8, 14]: 0.129% | Total (%) impurities [8, 14]: 0.17% | % Assay [8, 15]: 99.6% | % Impurities 3-CBZ [8, 15]: 0.007% | % Impurities Total unknown [8, 15]: 0.194% | Total (%) impurities [8, 15]: 0.23%
